In ChEMBL document CHEMBL5463723, “Data for DCP probe BIBO3304” (2023):

How the values were obtained:
[1] = target: 5-hydroxytryptamine receptor 1B (Homo sapiens) (UniProt P28222); test: 5-HT1B Eurofins-Cerep binding assay; design: ligand concentration 1 nM; conditions: Compound concentration 10.0 uM
[2] = target: Prostaglandin G/H synthase 1 (Homo sapiens) (UniProt P23219); test: Inhibitor of COX-1 in the Eurofins Cerep SafetyScreen44 (BI) by Fluorimetry (Cerep_4173); conditions: Compound concentration 10.0 uM
[3] = target: 5-hydroxytryptamine receptor 1A (Homo sapiens) (UniProt P08908); test: 5-HT1A Eurofins-Cerep binding assay; design: ligand concentration 0.5 nM; conditions: Compound concentration 10.0 uM
5-hydroxytryptamine receptor 1A (Homo sapiens), sequence (P08908 whole entry): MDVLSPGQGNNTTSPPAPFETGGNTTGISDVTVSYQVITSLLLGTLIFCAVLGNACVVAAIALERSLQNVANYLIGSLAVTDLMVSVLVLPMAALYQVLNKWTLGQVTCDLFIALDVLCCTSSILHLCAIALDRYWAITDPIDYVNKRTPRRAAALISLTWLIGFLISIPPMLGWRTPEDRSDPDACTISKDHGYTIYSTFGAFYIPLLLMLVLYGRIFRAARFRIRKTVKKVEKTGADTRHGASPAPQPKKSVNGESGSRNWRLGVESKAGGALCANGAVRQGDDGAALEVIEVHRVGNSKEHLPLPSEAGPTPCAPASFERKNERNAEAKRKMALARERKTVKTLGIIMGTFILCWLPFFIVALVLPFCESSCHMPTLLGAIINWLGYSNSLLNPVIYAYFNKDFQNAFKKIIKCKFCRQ

[4] = target: 5-hydroxytryptamine receptor 2A (Homo sapiens) (UniProt P28223); test: Agonist activity in the Eurofins Cerep SafetyScreen44 (BI) against 5HT2AH_AGON by Scintillation counting (Cerep_471); conditions: Compound concentration 10.0 uM
[5] = target: 5-hydroxytryptamine receptor 2B (Homo sapiens) (UniProt P41595); test: 5-HT2B Eurofins-Cerep binding assay; conditions: Compound concentration 10.0 uM
5-hydroxytryptamine receptor 2B (Homo sapiens), sequence (P41595 whole entry): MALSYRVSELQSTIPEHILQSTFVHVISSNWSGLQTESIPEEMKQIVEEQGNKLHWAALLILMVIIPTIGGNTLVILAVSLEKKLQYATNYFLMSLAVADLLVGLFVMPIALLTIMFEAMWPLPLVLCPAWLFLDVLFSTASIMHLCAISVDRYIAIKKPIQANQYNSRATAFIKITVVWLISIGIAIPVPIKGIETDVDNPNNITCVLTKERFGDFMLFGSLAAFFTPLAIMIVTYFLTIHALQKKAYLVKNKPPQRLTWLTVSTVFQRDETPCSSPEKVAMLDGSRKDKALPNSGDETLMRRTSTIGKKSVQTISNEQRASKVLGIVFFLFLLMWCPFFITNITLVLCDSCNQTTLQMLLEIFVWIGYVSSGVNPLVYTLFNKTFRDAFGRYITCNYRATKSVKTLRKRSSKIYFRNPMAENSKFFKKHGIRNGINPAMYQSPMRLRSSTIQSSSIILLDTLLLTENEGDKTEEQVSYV

[6] = target: Angiotensin-converting enzyme (Homo sapiens) (UniProt P12821); test: Activity against ACE(HU_AMTCH400) in the Eurofins Cerep SafetyScreen44 (BI) by Photometry (Cerep_3441); conditions: Compound concentration 10.0 uM
Rattus norvegicus = species: Rattus norvegicus; test: Activity against BZD/CENTR/R in the Eurofins Cerep SafetyScreen44 (BI) by Radioactive Assay (Cerep_28); assay type: protein-complex assay; conditions: Compound concentration 10.0 uM
[7] = target: D(1A) dopamine receptor (Homo sapiens) (UniProt P21728); test: D1 Eurofins-Cerep binding assay; design: ligand concentration 0.3 nM; conditions: Compound concentration 10.0 uM
D(1A) dopamine receptor (Homo sapiens), sequence (P21728 whole entry): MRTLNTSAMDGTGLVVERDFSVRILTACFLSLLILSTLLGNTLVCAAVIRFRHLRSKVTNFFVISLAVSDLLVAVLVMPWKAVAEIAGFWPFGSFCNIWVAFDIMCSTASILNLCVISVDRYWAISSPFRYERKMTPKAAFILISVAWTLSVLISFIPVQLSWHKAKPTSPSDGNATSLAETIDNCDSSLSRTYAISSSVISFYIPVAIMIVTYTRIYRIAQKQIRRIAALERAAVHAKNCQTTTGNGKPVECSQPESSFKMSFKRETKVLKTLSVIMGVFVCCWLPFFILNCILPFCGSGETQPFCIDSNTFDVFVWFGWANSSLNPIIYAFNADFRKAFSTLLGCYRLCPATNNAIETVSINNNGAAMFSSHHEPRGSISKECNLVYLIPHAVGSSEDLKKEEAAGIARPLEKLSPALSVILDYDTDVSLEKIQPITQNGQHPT

[8] = target: Muscarinic acetylcholine receptor M1 (Homo sapiens) (UniProt P11229); test: M1 Eurofins-Cerep binding assay; design: ligand concentration 2 nM; conditions: Compound concentration 10.0 uM
Homo sapiens = species: Homo sapiens; test: Agonist activity in the Eurofins Cerep SafetyScreen44 (BI) against N_NEURO_A4B2 by Radioligand Binding (Cerep_3029); assay type: protein-complex assay; conditions: Compound concentration 10.0 uM
[9] = target: 3',5'-cyclic-AMP phosphodiesterase 4D (Homo sapiens) (UniProt Q08499); test: Inhibitor of PDE4D2 in the Eurofins Cerep SafetyScreen44 (BI) by Scintillation counting (Cerep_4077); conditions: Compound concentration 10.0 uM
[10] = target: 5-hydroxytryptamine receptor 1A (Rattus norvegicus) (UniProt P19327); test: Activity against 5HT1A/R in the Eurofins Panlabs screen (BI) by Radioactive Assay; conditions: Compound concentration 10.0 uM
[11] = target: Alpha-1B adrenergic receptor (Homo sapiens) (UniProt P35368); test: Activity against ALPHA1B/R in the Eurofins Panlabs screen (BI) by Radioactive Assay; conditions: Rattus norvegicus; Compound concentration 10.0 uM
Alpha-1B adrenergic receptor (Homo sapiens), sequence (P35368 whole entry): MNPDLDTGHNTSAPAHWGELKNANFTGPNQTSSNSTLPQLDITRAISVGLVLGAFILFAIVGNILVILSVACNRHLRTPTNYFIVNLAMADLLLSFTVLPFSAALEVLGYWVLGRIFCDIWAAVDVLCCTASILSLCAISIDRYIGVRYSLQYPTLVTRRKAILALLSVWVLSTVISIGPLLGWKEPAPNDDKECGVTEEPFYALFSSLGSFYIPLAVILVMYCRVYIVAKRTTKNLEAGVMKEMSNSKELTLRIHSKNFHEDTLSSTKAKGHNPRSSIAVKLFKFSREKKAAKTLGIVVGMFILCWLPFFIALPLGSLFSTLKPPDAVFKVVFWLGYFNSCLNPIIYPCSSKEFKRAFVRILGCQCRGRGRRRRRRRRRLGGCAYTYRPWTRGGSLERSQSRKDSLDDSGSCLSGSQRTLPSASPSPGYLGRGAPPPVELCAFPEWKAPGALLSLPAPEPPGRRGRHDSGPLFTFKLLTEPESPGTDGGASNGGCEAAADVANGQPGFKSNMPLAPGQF

Cavia porcellus [12] = species: Cavia porcellus; test: Activity against ANF/GP in the Eurofins Panlabs screen (BI) by Radioactive Assay; conditions: Compound concentration 10.0 uM
[13] = target: Type-1 angiotensin II receptor (Oryctolagus cuniculus) (UniProt P34976); test: Activity against ATII/RB in the Eurofins Panlabs screen (BI) by Radioactive Assay; conditions: Compound concentration 10.0 uM
Type-1 angiotensin II receptor (Oryctolagus cuniculus), sequence (P34976 whole entry): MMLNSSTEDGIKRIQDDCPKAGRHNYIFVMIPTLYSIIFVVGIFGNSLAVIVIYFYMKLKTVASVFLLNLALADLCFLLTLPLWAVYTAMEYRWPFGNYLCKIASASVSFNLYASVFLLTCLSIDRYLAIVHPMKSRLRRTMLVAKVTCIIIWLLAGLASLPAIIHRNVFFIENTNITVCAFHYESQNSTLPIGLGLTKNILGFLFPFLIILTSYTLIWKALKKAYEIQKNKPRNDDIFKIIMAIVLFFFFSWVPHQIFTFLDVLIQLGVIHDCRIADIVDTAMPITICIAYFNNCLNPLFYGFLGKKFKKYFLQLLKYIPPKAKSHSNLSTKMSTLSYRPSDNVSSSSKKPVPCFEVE

[14] = target: B2 bradykinin receptor (Cavia porcellus) (UniProt O70526); test: Activity against B2/GP in the Eurofins Panlabs screen (BI) by Radioactive Assay; conditions: Compound concentration 10.0 uM
[15] = target: L-type calcium channel (dihydropyridine site), Cav1.2 alpha-1C (Rattus norvegicus, UniProt P22002); test: Activity against CA+/DHPSI/RA in the Eurofins Panlabs screen (BI) by Radioactive Assay; conditions: compound concentration 10 uM, read-out: % Ctrl
[16] = target: D(2) dopamine receptor (Homo sapiens) (UniProt P14416); test: Activity against D2HSPIP in the Eurofins Panlabs screen (BI); conditions: Compound concentration 10.0 uM
[17] = target: D(3) dopamine receptor (Homo sapiens) (UniProt P35462); test: Activity against D3/HU in the Eurofins Panlabs screen (BI) by Scintillation counting; conditions: Compound concentration 10.0 uM
[18] = target: Epidermal growth factor receptor (Homo sapiens) (UniProt P00533); test: Inhibitor of EGFRTYRKIN in the Eurofins Panlabs screen (BI) by Fluorimetry; conditions: Compound concentration 10.0 uM
[19] = target: Galanin receptor type 1 (Rattus norvegicus) (UniProt Q62805); test: Activity against GALANIN/R in the Eurofins Panlabs screen (BI) by Radioactive Assay; conditions: Compound concentration 10.0 uM
[20] = target: Glucocorticoid receptor (Homo sapiens) (UniProt P04150); test: Activity against GCORTIC/H in the Eurofins Panlabs screen (BI) by Radioactive Assay; conditions: Compound concentration 10.0 uM
Glucocorticoid receptor (Homo sapiens), sequence (P04150 whole entry): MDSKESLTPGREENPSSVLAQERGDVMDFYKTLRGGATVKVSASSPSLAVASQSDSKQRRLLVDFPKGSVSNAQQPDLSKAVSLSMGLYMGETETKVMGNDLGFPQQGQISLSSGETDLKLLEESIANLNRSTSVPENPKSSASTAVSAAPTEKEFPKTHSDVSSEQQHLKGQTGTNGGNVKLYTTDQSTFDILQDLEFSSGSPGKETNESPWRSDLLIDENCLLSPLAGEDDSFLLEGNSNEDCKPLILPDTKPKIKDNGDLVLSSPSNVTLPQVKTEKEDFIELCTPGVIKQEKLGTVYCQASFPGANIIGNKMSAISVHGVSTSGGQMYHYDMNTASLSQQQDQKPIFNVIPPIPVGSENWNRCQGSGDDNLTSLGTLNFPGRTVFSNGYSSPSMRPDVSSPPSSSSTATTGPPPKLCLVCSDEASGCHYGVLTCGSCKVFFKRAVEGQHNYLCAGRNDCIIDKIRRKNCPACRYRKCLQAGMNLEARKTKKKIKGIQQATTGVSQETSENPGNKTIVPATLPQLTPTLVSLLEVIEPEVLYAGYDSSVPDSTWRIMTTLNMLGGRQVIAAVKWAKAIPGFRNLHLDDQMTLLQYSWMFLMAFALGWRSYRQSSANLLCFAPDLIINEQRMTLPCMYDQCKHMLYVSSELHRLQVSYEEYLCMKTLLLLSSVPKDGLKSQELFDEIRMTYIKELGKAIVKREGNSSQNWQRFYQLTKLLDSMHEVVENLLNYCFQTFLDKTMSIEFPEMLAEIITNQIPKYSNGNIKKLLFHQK

[21] = target: Histamine H1 receptor (Cavia porcellus) (UniProt P31389); test: Activity against H1/CENT/GP in the Eurofins Panlabs screen (BI) by Radioactive Assay; conditions: Compound concentration 10.0 uM
[22] = target: Interleukin-1 receptor type 1 (Mus musculus) (UniProt P13504); test: Activity against IL-1ALPHA/M in the Eurofins Panlabs screen (BI) by Radioactive Assay; conditions: Compound concentration 10.0 uM
Interleukin-1 receptor type 1 (Mus musculus), sequence (P13504 whole entry): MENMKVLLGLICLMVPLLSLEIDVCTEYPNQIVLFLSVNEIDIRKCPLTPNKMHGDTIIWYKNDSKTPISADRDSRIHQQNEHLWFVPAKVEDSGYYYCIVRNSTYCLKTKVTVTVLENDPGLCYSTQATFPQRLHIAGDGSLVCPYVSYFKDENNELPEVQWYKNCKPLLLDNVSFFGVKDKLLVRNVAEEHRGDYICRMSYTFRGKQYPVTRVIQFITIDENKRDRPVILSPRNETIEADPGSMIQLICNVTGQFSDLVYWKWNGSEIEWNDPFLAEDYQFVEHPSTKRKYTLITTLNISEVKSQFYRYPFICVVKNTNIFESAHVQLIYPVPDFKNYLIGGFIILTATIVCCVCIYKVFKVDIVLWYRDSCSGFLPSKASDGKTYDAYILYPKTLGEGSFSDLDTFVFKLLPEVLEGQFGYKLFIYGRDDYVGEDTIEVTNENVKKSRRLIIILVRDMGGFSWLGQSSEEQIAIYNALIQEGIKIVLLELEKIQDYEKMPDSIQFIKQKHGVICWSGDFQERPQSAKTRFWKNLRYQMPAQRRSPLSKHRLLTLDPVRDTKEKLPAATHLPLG

[23] = target: Nitric oxide synthase, inducible (Mus musculus) (UniProt P29477); test: Activity against INOS in the Eurofins Panlabs screen (BI) by absorption of electromagnetic radiation; conditions: Compound concentration 10.0 uM
[24] = target: Leukotriene A-4 hydrolase (Cavia porcellus) (UniProt P19602); test: Inhibitor of LTA4HYD in the Eurofins Panlabs screen (BI) by Radioactive Assay; conditions: Compound concentration 100.0 uM
[25] = target: LTB4 receptor (Cavia porcellus) (UniProt Q9WTK1); test: Activity against LTB4GP in the Eurofins Panlabs screen (BI) by Radioactive Assay; conditions: Compound concentration 10.0 uM
[26] = target: Leukotriene C4 synthase (Cavia porcellus) (UniProt A6XA80); test: Inhibitor of LTC4SYN in the Eurofins Panlabs screen (BI) by Radioactive Assay; conditions: Compound concentration […] uM
Leukotriene C4 synthase (Cavia porcellus), sequence (A6XA80 whole entry): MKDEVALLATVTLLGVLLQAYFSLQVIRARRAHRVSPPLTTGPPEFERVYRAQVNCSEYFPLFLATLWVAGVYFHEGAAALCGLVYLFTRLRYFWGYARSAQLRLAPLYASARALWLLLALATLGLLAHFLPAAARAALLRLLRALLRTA

[27] = target: Cysteinyl leukotriene receptor 1 (Cavia porcellus) (UniProt Q2NNR5); test: Activity against LTD4/GP in the Eurofins Panlabs screen (BI) by Radioactive Assay; conditions: Compound concentration 10.0 uM
[28] = target: Muscarinic acetylcholine receptor M1 (Rattus norvegicus) (UniProt P08482); test: Activity against M1/R in the Eurofins Panlabs screen (BI) by Radioactive Assay; conditions: Compound concentration 10.0 uM
[29] = target: Muscarinic acetylcholine receptor M3 (Rattus norvegicus) (UniProt P08483); test: Activity against M3/R in the Eurofins Panlabs screen (BI) by Radioactive Assay; conditions: Compound concentration 10.0 uM
[30] = target: Mu-type opioid receptor (Cavia porcellus) (UniProt P97266); test: Activity against MU/GP in the Eurofins Panlabs screen (BI) by Radioactive Assay; conditions: Compound concentration 10.0 uM
Mu-type opioid receptor (Cavia porcellus), sequence (P97266 whole entry): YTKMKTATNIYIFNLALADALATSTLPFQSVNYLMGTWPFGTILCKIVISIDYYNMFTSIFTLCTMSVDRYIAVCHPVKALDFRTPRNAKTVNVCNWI

[31] = target: Substance-P receptor (Cavia porcellus) (UniProt P30547); test: Activity against NK1/GP in the Eurofins Panlabs screen (BI) by Radioactive Assay; conditions: Compound concentration 10.0 uM
[32] = target: Glutamate NMDA receptor (Rattus norvegicus) (UniProt P35439+Q00959+Q00960+Q00961+Q62645+Q8VHN2+Q9R1M7); test: Agonist activity in the Eurofins Panlabs screen (BI) against NMDAAGSI/R by Radioactive Assay; assay type: protein-complex assay; conditions: Compound concentration 10.0 uM
[33] = target: Glutamate receptor ionotropic, NMDA 1 (Rattus norvegicus) (UniProt P35439); test: Activity against NMDAGLSI/R in the Eurofins Panlabs screen (BI) by Radioactive Assay; conditions: Compound concentration 10.0 uM
[34] = target: Tyrosine-protein kinase Fyn (Homo sapiens) (UniProt P06241); test: Inhibitor of P59TYRKINFYN in the Eurofins Panlabs screen (BI) by FI - fluorescence intensity; conditions: Compound concentration 10.0 uM
Tyrosine-protein kinase Fyn (Homo sapiens), sequence (P06241 2-537 limits assumed): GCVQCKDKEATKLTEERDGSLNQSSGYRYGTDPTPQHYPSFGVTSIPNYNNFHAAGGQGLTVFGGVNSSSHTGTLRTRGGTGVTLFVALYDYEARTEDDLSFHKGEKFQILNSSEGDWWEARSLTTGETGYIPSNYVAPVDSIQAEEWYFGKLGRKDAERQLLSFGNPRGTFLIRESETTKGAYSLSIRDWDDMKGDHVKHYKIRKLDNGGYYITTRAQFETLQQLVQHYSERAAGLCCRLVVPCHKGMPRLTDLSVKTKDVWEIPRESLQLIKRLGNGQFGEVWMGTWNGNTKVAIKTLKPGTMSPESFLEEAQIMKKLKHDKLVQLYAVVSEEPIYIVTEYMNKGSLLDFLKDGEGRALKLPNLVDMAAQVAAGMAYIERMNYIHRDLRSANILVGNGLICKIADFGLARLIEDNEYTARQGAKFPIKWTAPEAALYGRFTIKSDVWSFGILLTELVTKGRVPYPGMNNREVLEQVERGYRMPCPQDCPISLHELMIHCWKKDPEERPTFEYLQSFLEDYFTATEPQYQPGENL

Cavia porcellus [35] = species: Cavia porcellus; test: Activity against SIGMA/NS/GP in the Eurofins Panlabs screen (BI) by Radioactive Assay; conditions: Compound concentration 10.0 uM
[36] = target: Transmembrane protein 97 (Cavia porcellus) (UniProt H0V073); test: Activity against SIGMA2/GP in the Eurofins Panlabs screen (BI) by Radioactive Assay; conditions: Compound concentration 10.0 uM
Transmembrane protein 97 (Cavia porcellus), sequence (H0V073 as listed by the source): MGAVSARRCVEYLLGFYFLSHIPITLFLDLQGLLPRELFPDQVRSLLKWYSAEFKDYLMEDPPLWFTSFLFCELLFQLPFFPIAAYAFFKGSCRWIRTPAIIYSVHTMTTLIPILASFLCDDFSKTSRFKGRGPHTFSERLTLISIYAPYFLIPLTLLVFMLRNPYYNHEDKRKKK

5-hydroxytryptamine receptor 1B (Homo sapiens), sequence (P28222 whole entry): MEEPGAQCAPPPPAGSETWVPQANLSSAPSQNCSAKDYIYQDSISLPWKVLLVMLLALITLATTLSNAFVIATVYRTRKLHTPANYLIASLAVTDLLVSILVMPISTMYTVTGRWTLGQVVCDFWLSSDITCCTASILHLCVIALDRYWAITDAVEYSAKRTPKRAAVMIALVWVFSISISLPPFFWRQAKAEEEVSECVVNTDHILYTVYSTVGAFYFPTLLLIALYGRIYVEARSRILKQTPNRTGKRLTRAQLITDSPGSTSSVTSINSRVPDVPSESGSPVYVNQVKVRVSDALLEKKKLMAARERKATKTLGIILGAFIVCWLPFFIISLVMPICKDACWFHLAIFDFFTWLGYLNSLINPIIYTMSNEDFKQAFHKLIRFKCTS

Structure (SMILES): N=C(N)NCCC[C@@H](NC(=O)C(c1ccccc1)c1ccccc1)C(=O)NCc1ccc(CNC(N)=O)cc1
- residual activity [1]: 60%
- residual activity [2]: 81%
- residual activity [3]: 56%
- residual activity [4]: 60%
- residual activity [5]: 57%
- residual activity [6]: 103%
- residual activity (Rattus norvegicus): 83%
- residual activity [7]: 97%
- residual activity [8]: 89%
- residual activity (Homo sapiens): 110%
- residual activity [9]: 91%
- residual activity [10]: 81%
- residual activity [11]: 114%
- residual activity (Cavia porcellus [12]): 97%
- residual activity [13]: 99%
- residual activity [14]: 115%
- activity at 10 µM [15]: 82% (not active)
- residual activity [16]: 97%
- residual activity [17]: 98%
- residual activity [18]: 83%
- residual activity [19]: 91%
- residual activity [20]: 86%
- residual activity [21]: 102%
- residual activity [22]: 88%
- residual activity [23]: 99%
- residual activity [24]: 102%
- residual activity [25]: 86%
- residual activity [26]: 97%
- residual activity [27]: 109%
- residual activity [28]: 73%
- residual activity [29]: 85%
- residual activity [30]: 104%
- residual activity [31]: 106%
- residual activity [32]: 89%
- residual activity [33]: 87%
- residual activity [34]: 84%
- residual activity (Cavia porcellus [35]): 100%
- residual activity [36]: 109%
